{"source": "paper PMC10241923", "about": "(British Journal of Cancer, 2023)", "target": "CDK9 (Homo sapiens, UniProt P50750)", "sequence (P50750 whole entry)": "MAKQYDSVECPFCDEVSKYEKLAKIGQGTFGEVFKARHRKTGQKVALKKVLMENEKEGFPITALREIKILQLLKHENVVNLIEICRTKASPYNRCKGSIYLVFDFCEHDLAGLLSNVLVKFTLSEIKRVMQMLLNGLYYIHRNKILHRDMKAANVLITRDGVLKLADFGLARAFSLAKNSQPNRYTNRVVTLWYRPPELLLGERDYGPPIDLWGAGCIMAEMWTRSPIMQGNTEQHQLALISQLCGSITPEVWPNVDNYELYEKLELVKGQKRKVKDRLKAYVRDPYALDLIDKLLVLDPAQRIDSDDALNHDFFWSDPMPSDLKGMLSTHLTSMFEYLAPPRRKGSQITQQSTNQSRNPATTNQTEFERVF", "test": "CeTSA isothermal dose-response at […] °C in intact LNCaP cells, immunoblot", "assay_type": "cell-based"}
{"smiles": "CC(C)c1cnn2c(NCc3ccccc3)cc(NC[C@H]3CCNC[C@@H]3O)nc12", "note": "[CT7001]", "values": [{"measurement": "CeTSA isothermal dose-response at 54 °C in intact LNCaP cells, immunoblot", "result": "has a degree of engagement also with CDK2 and CDK9 at higher concentrations"}]}
